Source: patent publication US20060217315A1, “Method of controlled ovarian hyperstimulation and pharmaceutical kit for use in such method” (priority 2001, published 2006)

Assays:
[1] = system: midcycle gonadotropin surge; details: cited from earlier work
[2] = system: uterine contractility; details: vaginal administration starting on the day of oocyte retrieval, compared with preovulatory values; cited from earlier work
[3] = system: endogenous LH surge; experiment: Clinical investigation: intramuscular progesterone instead of hCG to allow an endogenous LH surge in COH; assay type: in vivo, human
Method: An open-label, uncontrolled clinical investigation is performed in 5 healthy female volunteers undergoing COH and subsequent IVF and ET, using the procedure as set forth in example 1, with the proviso that in stead of administering hCG a single intramuscular injection of 50 mg progesterone is administered to allow an endogenous LH surge to occur, inducing resumption of meiosis and luteinisation.

[4] = system: folliculogenesis; details: 50 mg/day tablets from cycle day 2 until hCG injection, with recombinant FSH; cited from earlier work
[5] = system: premature LH-surge; experiment: Open-label uncontrolled clinical trial of premature LH-surge prevention in COH with IVF and embryo transfer; assay type: in vivo, human; details: for prevention of premature LH-rises (above levels of 10 IU/L): day 6 of recombinant FSH treatment until day of hCG treatment
Method: An open-label, uncontrolled clinical trial is performed to investigate the efficacy, safety, and tolerability of premature LH-surge prevention in 30 female subjects undergoing COH and subsequent IVF and embryo transfer (ET), using a daily oral dosage of 40 mg mifepristone from day 6 of recombinant FSH treatment up to and including the day of hCG treatment and thrice daily intravaginal progesterone supplementation with 200 mg starting immediately after the hCG treatment for a period of up to 12 weeks. Although this treatment is suitable for all types of IVF patients (e.g. within the age range 18 to 45 years, with or without displaying polycystic ovarian syndrome and with or without a regular cycle), the following selection criteria are set forth in the investigation: healthy female partners of infertile couples; age at the time of screening between 20 and 39 years; a body mass index (BMI) between 19 and 29 kg/m^2; a regular menstrual cycle, and willing to give a written informed consent. Prior to the first administration of recombinant FSH a blood sample is taken for hormone analysis (estradiol and LH) and a standard urinary hCG assay is performed to exclude pregnancy. Recombinant FSH treatment is started at day 2 or 3 of menses onwards by a daily subcutaneous injection until the day of hCG administration. During the first 5 days of recombinant FSH treatment the dose is fixed at 150 IU. Starting at day 6, blood samples for hormone analysis are taken every two days prior to drug administration and ultrasonographic monitoring of follicle growth is performed to adjust, if necessary, the daily injectable dose of recombinant FSH. A subcutaneous injection with urinary hCG (5.000 IU) and an intramuscular injection of 50 mg progesterone are administered simultaneously, when at least three follicles exceed a diameter of 17 mm as measured by ultrasound scan and subsequently oocyte retrieval is performed 30-38 hours later. Using the procedure as set forth in example 1, with the proviso that, instead of using a daily dose of 40 mg mifepristone, mifepristone is used at a daily dose of 20 mg, a similar clinical outcome is obtained at a lower anti-P exposure level in the female subjects. […] Using the procedure as set forth in example 1, with the proviso that, instead of using a daily dose of 40 mg mifepristone, mifepristone is used at a daily dose of 10 mg, a similar clinical outcome is obtained at a lower anti-P exposure level in the female subjects.

[6] = system: endometrium; experiment: Controlled clinical study of endometrial receptivity in oocyte donors undergoing COH (glandular dating, pinopodes); assay type: in vivo, human; details: endometrial biopsy day 7 after hCG injection
Method: An open-label, randomized and controlled clinical study is performed in oocyte donors undergoing COH and in whom premature LH-surges are prevented by either standard GnRH agonist treatment (5 oocyte donors) or mifepristone treatment (5 oocyte donors) with the objective to compare endometrial receptivity. In women treated with 40 mg orally administered mifepristone, the procedure as set forth in example 1 is used, with the proviso that instead of administering progesterone for 12 weeks, daily intravaginal progesterone supplementation with 400 mg is started immediately after the hCG treatment and continued until the day of endometrial biopsy (day 7 after hCG injection in donors). To oocyte donors in the reference group, undergoing COH and receiving GnRH agonist, treatment with GnRH agonist is started in the midluteal phase of the preceding menstrual cycle and given concomitantly with recombinant FSH from day 2 or 3 of the COH cycle up to and including the day of hCG treatment Vaginal progesterone supplementation is started in the GnRH-treated oocyte donors directly after oocyte retrieval (36-38 hours after hCG injection) and continued until the day of endometrial biopsy (day 7 after hCG injection). Endometrial samples are taken from all oocyte donors. […]

Structure (SMILES)	LH and FSH surges when added to RU486 ([1]; 5-10 mg/day, im, for 2 days, added to a 5-day course of RU486)	uterine contraction frequency on the day of embryo transfer [2]	oocyte quality at harvest ([3]; harvested at 36-3836 hours after starting progesterone treatment)	occurrence of endogenous LH-surges ([3]; single intramuscular injection of 50 mg, after 40 mg mifepristone COH procedure)	timing of the midcycle gonadotropin surge and collapse of the dominant follicle ([1]; 1 mg/day for 5 or 15 days, starting when dominant follicle reached 14-16 mm)	emergence of periovulatory progesterone rise ([1]; 1 mg/day for 5 or 15 days)	effect on follicular development [4]	occurrence of LH-surges prior to hCG injection [4]	tolerability and adverse effects ([5]; 10 mg daily oral)	prevention of premature LH-rises (above levels of 10 IU/L) ([5]; 10 mg daily oral)	tolerability and adverse effects ([5]; 20 mg daily oral)	prevention of premature LH-rises (above levels of 10 IU/L) ([5]; 20 mg daily oral)	tolerability and adverse effects ([5]; 40 mg daily oral)	prevention of premature LH-rises (above levels of 10 IU/L) ([5]; 40 mg daily oral)	endometrial glandular dating ([6]; hematoxylin and eosin staining)	presence of pinopodes ([6]; scanning electron microscopy)
CC(=O)[C@H]1CC[C@H]2[C@@H]3CCC4=CC(=O)CC[C@]4(C)[C@H]3CC[C@]12C [progesterone]	readily induced LH and FSH surges and completely reversed the effects of RU486 at midcycle	induced a decrease in uterine contraction frequency	retrieval of good quality oocytes	efficacious in allowing endogenous LH-surges to occur	–	–	–	–	–	–	–	–	–	–	–	–
CC#C[C@]1(O)CC[C@H]2[C@@H]3CCC4=CC(=O)CCC4=C3[C@@H](c3ccc(N(C)C)cc3)C[C@@]21C [mifepristone]	–	–	–	–	consistently delayed	delayed the emergence of periovulatory progesterone rise	arrests follicular development by delaying the growth of the dominant follicle	may prevent the occurrence of LH-surges	well tolerated and shows no adverse effects	efficacious in preventing premature LH-rises	well tolerated and shows no adverse effects	efficacious in preventing premature LH-rises	well tolerated and shows no adverse effects	efficacious in preventing premature LH-rises	typically in-phase glandular dating is observed	pinopodes are readily visible
